Laboratory results reported in patent US20250019377A1 (JACOBIO PHARMACEUTICALS CO., LTD, priority 2021, published 2025).

Legend:
[1] = test system: p-ERK in AGS cells (K-Ras G12D); test: Phospho-ERK1/2(THR202/TYR204) HTRF assay, AGS; assay type: cell-based; details: Homo sapiens, 2 h, 2 hours incubation
K-Ras G12V [2] = molecular target: T1, K-Ras G12V (Homo sapiens, UniProt P01116, G12V); test: biochemical
[3] = test system: AsPC-1 cells (K-Ras G12D); test: 2D cell growth inhibition assay, AsPC-1; assay type: cell-based; details: Homo sapiens, ASPC1, 144 h, AsPC-1, K-Ras G12D, 6 days, absolute IC50
SW620 cells (K-Ras G12V) = test: 2D cell growth inhibition assay, SW620; assay type: cell-based; details: Homo sapiens, SW-620, 144 h, 6 days, absolute IC50
[4] = test system: p-ERK in SW620 cells (K-Ras G12V); test: Phospho-ERK1/2(THR202/TYR204) HTRF assay, SW620; assay type: cell-based; details: Homo sapiens, SW-620, 2 h, 2 hours incubation
AGS cells (K-Ras G12D) = test: 2D cell growth inhibition assay, AGS; assay type: cell-based; details: Homo sapiens, 144 h, 6 days, absolute IC50
K-Ras G12V [5] = molecular target: T1, K-Ras G12V; test: SOS1 catalyzed nucleotide exchange assay (GDP form K-Ras), K-Ras G12V; details: read-out: K-Ras G12V GDP Biochemical Activity (IC50)

T1 sequence (P01116 1-169 isoform P01116-2 G12V): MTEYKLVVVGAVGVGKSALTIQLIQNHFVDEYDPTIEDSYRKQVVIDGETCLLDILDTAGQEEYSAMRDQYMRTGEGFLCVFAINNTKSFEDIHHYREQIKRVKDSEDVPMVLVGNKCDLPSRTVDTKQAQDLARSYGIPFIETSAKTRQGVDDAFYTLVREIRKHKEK

| Compound | IC50 [1] [nM] | IC50 (K-Ras G12V [2]) [nM] | IC50 [3] [nM] | IC50 (SW620 cells (K-Ras G12V)) [nM] | IC50 [4] [nM] | IC50 (AGS cells (K-Ras G12D)) [nM] | IC50 (K-Ras G12V [5]) [nM] |
| --- | --- | --- | --- | --- | --- | --- | --- |
| C#Cc1c(F)ccc2cc(O)cc(-c3nc(O)c4c(N5CCCOCC5)nc(OC[C@@]56CCCN5C[C@H](F)C6)nc4c3F)c12 [Compound 123, 7-(8-ethynyl-7-fluoro-3-hydroxynaphthalen-1-yl)-8-fluoro-2-(((2R,7aS)-2-fluoro-tetrahydro-1H-pyrrolizin-7a(5H)-yl)methoxy)-4-(1,4-oxazepan-4-yl)pyrido[4,3-d] pyrimidin-5-ol] | 517 | 156 | 2800 | 525 | 803 | 8.51 | 2.49 |
| C#Cc1c(F)ccc2cc(O)cc(-c3nc(SC)c4c(N5CCCOCC5)nc(OC[C@@]56CCCN5C[C@H](F)C6)nc4c3F)c12 [Compound 47, 5-ethynyl-6-fluoro-4-(8-fluoro-2-(((2R,7aS)-2-fluorotetrahydro-1H-pyrrolizin-7a(5H)-yl)methoxy)-5-(methylthio)-4-(1,4-oxazepan-4-yl)pyrido[4,3-d]pyrimidin-7-yl)naphthalen-2-ol trifluoroacetic acid] | 17.7 | 152 | 106 | 41.6 | 40.9 | 51.7 | 4.38 |
| C#Cc1c(F)ccc2cc(O)cc(-c3nc(OC4CC4)c4c(N5CCCOCC5)nc(OC[C@@]56CCCN5C[C@H](F)C6)nc4c3F)c12 [Compound 51, 4-(5-cyclopropoxy-8-fluoro-2-(((2R,7aS)-2-fluorotetrahydro-1H-pyrrolizin-7a(5H)-yl)methoxy)-4-(1,4-oxazepan-4-yl)pyrido[4,3-d]pyrimidin-7-yl)-5-ethynyl-6-fluoronaphthalen-2-ol trifluoroacetic acid] | 2.27 | 22 | 74.2 | 10.3 | 8.5 | 9.66 | 1.69 |
| C#Cc1c(F)ccc2cc(O)cc(-c3ncc4c(N5CCCOC6CC65)nc(OC[C@@H]5CCCN5C)nc4c3F)c12 (stereo partly drawn) [Compound 113, 4-(4-(2-oxa-6-azabicyclo[5.1.0]octan-6-yl)-8-fluoro-2-(((S)-1-methylpyrrolidin-2-yl)methoxy)pyrido[4,3-d]pyrimidin-7-yl)-5-ethynyl-6-fluoronaphthalen-2-ol] | 1.83 | 29 | 121 | 22.4 | 10.4 | 9.76 | 1.66 |

Next, values leading:

| IC50 [1] [nM] | IC50 (K-Ras G12V [2]) [nM] | IC50 [3] [nM] | IC50 (SW620 cells (K-Ras G12V)) [nM] | IC50 [4] [nM] | IC50 (AGS cells (K-Ras G12D)) [nM] | IC50 (K-Ras G12V [5]) [nM] | Compound |
| --- | --- | --- | --- | --- | --- | --- | --- |
| 5.68 | 124 | 91.3 | 24.8 | 14.1 | 9.24 | 1.94 | Oc1cc(-c2ncc3c(N4CCCOCC4)nc(OC[C@@]45CCCN4C[C@H](F)C5)nc3c2F)c2c(F)c(F)ccc2c1 [Compound 40, 5,6-difluoro-4-(8-fluoro-2-(((2R,7aS)-2-fluorotetrahydro-1H-pyrrolizin-7a(5H)-yl)methoxy)-4-(1,4-oxazepan-4-yl)pyrido[4,3-d]pyrimidin-7-yl)naphthalen-2-ol trifluoroacetic acid] |
| 5.99 | 107 | 95.7 | 5.68 | 2.1 | 7.96 | 1.41 | C#Cc1c(F)ccc2cc(O)cc(-c3ncc4c(N5CCOCC(F)(F)C5)nc(OC[C@@]56CCCN5C[C@H](F)C6)nc4c3F)c12 [Compound 18, 4-(4-(6,6-difluoro-1,4-oxazepan-4-yl)-8-fluoro-2-(((2R,7aS)-2-fluorotetrahydro-1H-pyrrolizin-7a(5H)-yl)methoxy)pyrido[4,3-d]pyrimidin-7-yl)-5-ethynyl-6-fluoronaphthalen-2-ol trifluoroacetic acid] |
